From patent US8710085B2, “Pyrrolidine-1,2-dicarboxamide derivatives” (Novartis AG, priority 2008, dated 2014)
pIC50: −log10 of the molar value.

Key:
[1] = molecular target: T1, PI3Kγ (Homo sapiens, UniProt P48736, Q459R); assay: PI3K KinaseGlo assay, PI3Kγ; assay type: biochemical; details: 150 nM enzyme, 1 μM ATP, 90 mins, room temperature, read-out: PI3Kg/IC50
T1 construct: p110γ(Δ143-[Met144-1102])-His; made in house; host or cells: Tn5 insect cells; construct from Roger Williams lab, MRC LMB
T1 sequence (P48736 with tags, fused parts or gaps Q459R): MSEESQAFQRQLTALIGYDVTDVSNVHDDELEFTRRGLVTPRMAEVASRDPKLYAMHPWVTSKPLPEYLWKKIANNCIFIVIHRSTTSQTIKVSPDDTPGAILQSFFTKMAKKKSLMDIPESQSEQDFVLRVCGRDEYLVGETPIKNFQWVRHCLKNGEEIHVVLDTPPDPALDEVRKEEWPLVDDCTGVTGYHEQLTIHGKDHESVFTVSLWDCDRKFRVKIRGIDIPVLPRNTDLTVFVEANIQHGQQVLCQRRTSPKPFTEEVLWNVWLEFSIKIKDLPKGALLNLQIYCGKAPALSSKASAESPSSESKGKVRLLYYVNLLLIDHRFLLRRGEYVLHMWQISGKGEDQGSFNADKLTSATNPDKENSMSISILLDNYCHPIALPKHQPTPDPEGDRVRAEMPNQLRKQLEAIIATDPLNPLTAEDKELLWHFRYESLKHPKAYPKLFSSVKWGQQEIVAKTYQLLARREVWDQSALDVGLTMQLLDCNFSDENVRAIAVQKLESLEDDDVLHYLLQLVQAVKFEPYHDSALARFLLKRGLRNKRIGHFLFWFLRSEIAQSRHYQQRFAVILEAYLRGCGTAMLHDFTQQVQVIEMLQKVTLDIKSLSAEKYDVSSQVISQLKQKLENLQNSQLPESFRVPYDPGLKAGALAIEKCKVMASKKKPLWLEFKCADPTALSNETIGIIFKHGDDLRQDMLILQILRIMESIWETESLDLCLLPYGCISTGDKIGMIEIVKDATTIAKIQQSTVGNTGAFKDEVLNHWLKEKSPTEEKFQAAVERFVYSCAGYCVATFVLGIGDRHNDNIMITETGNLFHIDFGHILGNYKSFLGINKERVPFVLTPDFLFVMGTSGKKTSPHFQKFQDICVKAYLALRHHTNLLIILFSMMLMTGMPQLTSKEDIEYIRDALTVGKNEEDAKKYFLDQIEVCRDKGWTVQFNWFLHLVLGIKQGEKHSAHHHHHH
Experimental: (§1) L-a-phosphatidylinositol (PI), provided as 10 mg/ml solution in methanol, was transferred into a glass tube and dried under nitrogen beam. It was then resuspended in 3% OctylGlucoside (OG) by vortexing and stored at 4° C. The KinaseGlo Luminescent Kinase Assay (Promega, Madison/WI, USA) is a homogeneous HTS method of measuring kinase activity by quantifying the amount of ATP remaining in solution following a kinase reaction.
5 μL of a mix of PI/OG with the PI3K subtype were added (Table 1). Kinase reactions were started by addition of 5 μl of ATP-mix containing in a final volume 10 μL 10 mM TRIS-HCl pH 7.5, 3 mM MgCl2, 50 mM NaCl, 0.05% CHAPS, 1 mM DTT and 1 μM ATP, and occurred at room temperature. […] The standard was used as a reference compound and included in all assay plates in the form of 16 dilution points in duplicate. […]
(§2) PI3Kα, PI3Kβ and PI3Kγ were purified in two chromatographic steps: immobilized metal affinity chromatography (IMAC) on a Ni sepharose resin (GE Healthcare) and gel filtration utilizing a Superdex 200 26/60 column (GE Healthcare). All buffers were chilled to 4° C. and lysis was performed chilled on ice. Column fractionation was performed at room temperature. All buffers used to purify PI3Kβ contained 0.05% Triton X100 in addition to what is described below.
(§3) The lysate was centrifuged at 45,000 g for 30 minutes, and the supernatant was loaded onto a pre-equilibrated IMAC column (3 mL resin/100 mL lysate). […] Protein was eluted with 20 mM Tris-Cl, pH 7.5, 0.5 M NaCl, 5% glycerol, 250 mM imidazole, 1 mM NaF, 0.1 μg/mL OAA, 5 mM BME, 1× Complete protease inhibitor cocktail—EDTA-free. Pertinent fractions were analyzed by SDS-PAGE and pooled accordingly. The protein was further purified by gel filtration on a Superdex 200 26/60 column equilibrated in 20 mM Tris-Cl, pH 7.5, 0.5 M NaCl, 5% glycerol, 1 mM NaF, 5 mM DTT, 1× Complete protease inhibitor cocktail—EDTA-free. Pertinent fractions were analyzed by SDS-PAGE and pooled accordingly. An equal volume of Dialysis Buffer (20 mM Tris-Cl, pH 7.5, 500 mM NaCl, 50% glycerol, 5 mM NaF, 5 mM DTT) was added to the pool and than dialyzed against Dialysis Buffer two changes (one change overnight). Protein was stored at −20° C.

[2] = molecular target: T2, PI3Kalpha wild type (Homo sapiens, UniProt P42336); assay: Luciferase luminescence assay (KinaseGlo), PI3Kalpha wild type; assay type: biochemical; details: construct BV1075; 1 μM ATP, 15 min preincubation, 1 h, room temperature; read-out: PI3Kalpha wild type IC50s
T2 construct: p110α(21-1068)-His; made in house
T2 sequence (P42336 with tags, fused parts or gaps): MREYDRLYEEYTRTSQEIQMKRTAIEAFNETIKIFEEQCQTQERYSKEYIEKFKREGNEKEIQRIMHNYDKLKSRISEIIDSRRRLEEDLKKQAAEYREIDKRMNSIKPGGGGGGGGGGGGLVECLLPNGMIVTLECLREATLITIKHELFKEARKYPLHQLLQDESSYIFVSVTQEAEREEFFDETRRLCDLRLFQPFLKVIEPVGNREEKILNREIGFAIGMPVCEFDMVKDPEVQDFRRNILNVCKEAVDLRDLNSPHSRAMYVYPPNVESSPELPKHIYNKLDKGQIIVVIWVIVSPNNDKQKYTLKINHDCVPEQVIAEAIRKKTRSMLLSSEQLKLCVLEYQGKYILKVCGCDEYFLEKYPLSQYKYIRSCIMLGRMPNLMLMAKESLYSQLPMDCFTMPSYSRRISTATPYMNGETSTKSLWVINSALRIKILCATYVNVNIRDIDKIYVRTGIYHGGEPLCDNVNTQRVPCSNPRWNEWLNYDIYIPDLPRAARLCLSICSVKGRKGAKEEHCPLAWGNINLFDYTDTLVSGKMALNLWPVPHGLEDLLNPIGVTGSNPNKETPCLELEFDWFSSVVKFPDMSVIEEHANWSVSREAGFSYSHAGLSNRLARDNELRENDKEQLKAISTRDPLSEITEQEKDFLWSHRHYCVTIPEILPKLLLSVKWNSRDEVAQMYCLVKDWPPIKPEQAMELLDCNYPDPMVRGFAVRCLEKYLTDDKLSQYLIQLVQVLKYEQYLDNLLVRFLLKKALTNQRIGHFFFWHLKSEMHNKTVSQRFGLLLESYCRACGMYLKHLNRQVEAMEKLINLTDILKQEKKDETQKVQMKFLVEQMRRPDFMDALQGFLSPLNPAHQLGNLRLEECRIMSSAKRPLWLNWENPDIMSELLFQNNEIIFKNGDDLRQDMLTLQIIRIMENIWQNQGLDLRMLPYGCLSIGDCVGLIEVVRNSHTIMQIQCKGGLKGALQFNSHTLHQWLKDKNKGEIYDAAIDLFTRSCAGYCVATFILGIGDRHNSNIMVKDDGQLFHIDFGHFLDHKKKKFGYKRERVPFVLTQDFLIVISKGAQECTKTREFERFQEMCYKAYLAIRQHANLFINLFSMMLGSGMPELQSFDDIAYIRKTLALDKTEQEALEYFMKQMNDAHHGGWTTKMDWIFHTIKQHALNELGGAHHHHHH
Text: (§4) Luminescence is a well established readout to determine ATP concentrations and can thus be used to follow the activity of many kinases regardless of their substrate. The KinaseGlo Luminescent Kinase Assay (Promega, Madison/WI, USA) is a homogeneous HTS method of measuring kinase activity by quantifying the amount of ATP remaining in solution following a kinase reaction.

[3] = molecular target: T3, PI3Kalpha E545K (Homo sapiens, UniProt P42336, E545K); assay: Luciferase luminescence assay (KinaseGlo), PI3Kalpha E545K; assay type: biochemical; details: construct BV1147; 1 μM ATP, 15 min preincubation, 1 h, room temperature; read-out: PI3Kalpha E545K IC50s
T3 construct: made in house; host or cells: baculovirus (vector LR561)
T3 sequence (P42336 with tags, fused parts or gaps E545K): as the sequence (P42336 with tags, fused parts or gaps) above, with G112I, G113S, G119I, G120M, G121V, E646K counted along it
Text: as §4

[4] = molecular target: T4, PI3Kδ (Homo sapiens, UniProt O00329); assay: PI3K KinaseGlo assay, PI3Kδ; assay type: biochemical; details: 10 nM enzyme, 1 μM ATP, 30 mins, room temperature, read-out: PI3Kd/IC50
T4 construct: p85iSH2(461-568)-GGGGGG-p110δ(2-1044)-His; made in house; host or cells: baculovirus, Tn5 insect cells
T4 sequence (O00329 with tags, fused parts or gaps): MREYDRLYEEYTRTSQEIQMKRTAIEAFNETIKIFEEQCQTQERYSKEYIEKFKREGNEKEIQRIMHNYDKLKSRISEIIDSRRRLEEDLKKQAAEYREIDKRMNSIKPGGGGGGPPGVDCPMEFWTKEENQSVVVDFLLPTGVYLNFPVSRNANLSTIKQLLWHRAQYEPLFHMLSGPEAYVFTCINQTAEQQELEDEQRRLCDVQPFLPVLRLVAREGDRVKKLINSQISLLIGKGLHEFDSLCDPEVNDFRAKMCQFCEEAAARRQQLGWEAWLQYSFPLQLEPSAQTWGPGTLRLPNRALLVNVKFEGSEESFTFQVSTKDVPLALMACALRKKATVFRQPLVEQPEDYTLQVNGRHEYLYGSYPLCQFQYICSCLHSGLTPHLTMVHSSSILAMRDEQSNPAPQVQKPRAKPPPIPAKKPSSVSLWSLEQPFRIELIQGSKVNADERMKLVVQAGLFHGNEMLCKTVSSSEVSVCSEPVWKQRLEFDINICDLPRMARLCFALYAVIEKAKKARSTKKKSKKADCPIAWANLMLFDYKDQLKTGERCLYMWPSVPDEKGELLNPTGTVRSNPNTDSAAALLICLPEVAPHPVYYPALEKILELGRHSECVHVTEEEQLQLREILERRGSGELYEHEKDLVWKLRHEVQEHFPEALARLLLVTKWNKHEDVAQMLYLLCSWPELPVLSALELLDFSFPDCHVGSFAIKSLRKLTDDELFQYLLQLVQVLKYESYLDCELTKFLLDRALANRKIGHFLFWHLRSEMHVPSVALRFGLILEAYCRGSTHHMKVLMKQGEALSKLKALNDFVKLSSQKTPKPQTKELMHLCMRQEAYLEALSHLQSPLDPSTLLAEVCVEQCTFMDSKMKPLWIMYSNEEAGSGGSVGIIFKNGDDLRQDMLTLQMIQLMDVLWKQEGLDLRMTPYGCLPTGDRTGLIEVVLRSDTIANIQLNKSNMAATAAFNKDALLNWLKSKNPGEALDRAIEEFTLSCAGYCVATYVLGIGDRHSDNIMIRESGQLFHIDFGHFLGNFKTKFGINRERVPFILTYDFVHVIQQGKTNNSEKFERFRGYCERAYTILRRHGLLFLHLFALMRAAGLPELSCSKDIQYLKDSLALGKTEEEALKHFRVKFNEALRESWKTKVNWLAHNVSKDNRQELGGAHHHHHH

[5] = molecular target: T5, PI3Kα (Homo sapiens, UniProt P42336); assay: PI3K KinaseGlo assay, PI3Kα; assay type: biochemical; details: KinaseGlo; 10 nM enzyme, 1 μM ATP, 30 mins, room temperature; read-out: PI3Ka/IC50
T5 construct: p110α(21-1068)-His; made in house; host or cells: baculovirus, Tn5 insect cells
T5 sequence (P42336 with tags, fused parts or gaps): as the sequence (P42336 with tags, fused parts or gaps) above

[6] = molecular target: T6, PI3Kalpha H1047R (Homo sapiens, UniProt P42336, H1047R); assay: Luciferase luminescence assay (KinaseGlo), PI3Kalpha H1047R; assay type: biochemical; details: construct BV1097; 1 μM ATP, 15 min preincubation, 1 h, room temperature; read-out: PI3Kalpha H1047R IC50s
T6 construct: made in house; host or cells: baculovirus (vector LR480)
T6 sequence (P42336 with tags, fused parts or gaps H1047R): as the sequence (P42336 with tags, fused parts or gaps) above, with G112I, G113S, G119I, G120M, G121V, H1148R counted along it
Text: as §4

[7] = molecular target: T7, PI3Kβ (Homo sapiens, UniProt P42338); assay: PI3K KinaseGlo assay, PI3Kβ; assay type: biochemical; details: KinaseGlo; 25 nM enzyme, 1 μM ATP, 30 mins, room temperature; read-out: PI3Kb/IC50
T7 construct: p110β(2-1070)-His; made in house; host or cells: baculovirus, Tn5 insect cells
T7 sequence (P42338 with tags, fused parts or gaps): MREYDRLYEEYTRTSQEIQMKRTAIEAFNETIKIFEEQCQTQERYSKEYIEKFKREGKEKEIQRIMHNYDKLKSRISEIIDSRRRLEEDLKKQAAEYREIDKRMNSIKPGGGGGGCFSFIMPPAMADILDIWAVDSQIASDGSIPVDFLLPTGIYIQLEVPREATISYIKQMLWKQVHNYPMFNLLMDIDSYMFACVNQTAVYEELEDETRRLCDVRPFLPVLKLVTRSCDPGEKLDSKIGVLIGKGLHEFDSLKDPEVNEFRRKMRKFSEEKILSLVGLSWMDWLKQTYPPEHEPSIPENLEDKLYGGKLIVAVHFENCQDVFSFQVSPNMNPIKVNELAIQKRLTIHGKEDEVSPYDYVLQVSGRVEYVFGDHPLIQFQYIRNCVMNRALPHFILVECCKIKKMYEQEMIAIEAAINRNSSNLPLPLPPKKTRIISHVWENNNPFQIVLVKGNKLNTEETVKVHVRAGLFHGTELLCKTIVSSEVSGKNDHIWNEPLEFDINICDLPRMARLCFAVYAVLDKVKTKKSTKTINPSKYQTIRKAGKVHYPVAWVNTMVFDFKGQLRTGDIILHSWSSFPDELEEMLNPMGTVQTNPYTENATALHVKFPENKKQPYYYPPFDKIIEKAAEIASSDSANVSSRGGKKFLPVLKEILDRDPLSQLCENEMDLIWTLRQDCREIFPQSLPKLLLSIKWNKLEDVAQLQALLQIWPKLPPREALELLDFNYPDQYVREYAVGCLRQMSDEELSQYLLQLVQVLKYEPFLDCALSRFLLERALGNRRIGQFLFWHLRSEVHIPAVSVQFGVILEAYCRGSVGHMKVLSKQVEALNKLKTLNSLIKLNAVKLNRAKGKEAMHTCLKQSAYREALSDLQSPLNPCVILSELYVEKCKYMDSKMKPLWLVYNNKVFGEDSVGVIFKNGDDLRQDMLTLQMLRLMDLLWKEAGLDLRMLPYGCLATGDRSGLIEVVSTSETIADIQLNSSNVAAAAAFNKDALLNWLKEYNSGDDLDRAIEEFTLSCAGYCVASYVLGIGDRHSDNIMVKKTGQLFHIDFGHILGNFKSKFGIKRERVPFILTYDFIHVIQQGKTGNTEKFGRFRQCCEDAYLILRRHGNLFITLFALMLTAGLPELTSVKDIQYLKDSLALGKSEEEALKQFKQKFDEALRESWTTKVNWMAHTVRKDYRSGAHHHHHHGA
Experimental: as §1, with “PI3K KinaseGlo assay: […] of compound dilutions were dispensed onto black 384-well low volume Non Binding Styrene (NBS) plates (Costar Cat. No. NBS#3676). L-a-phosphatidylinositol” for “L-a-phosphatidylinositol”
5 μL of a mix of PI/OG with the PI3K subtype were added (Table 1). Kinase reactions were started by addition of 5 μl of ATP-mix containing in a final volume 10 μL 10 mM TRIS-HCl pH 7.5, 3 mM MgCl2, 50 mM NaCl, 0.05% CHAPS, 1 mM DTT and 1 μM ATP, and occurred at room temperature. […] The standard was used as a reference compound and included in all assay plates in the form of 16 dilution points in duplicate.
The PI3Kα, PI3Kβ and PI3Kδ constructs are fusion of p85α iSH2 domain and the respective p110 isoforms. The p85α fragment and p110 isoform genes were generated by PCR from first strand cDNA generated by RT-PCR from commercial RNA from placenta, testis and brain as described below. The PI3Kγ construct was obtained from Roger Williams lab, MRC Laboratory of Molecular Biology, Cambridge, UK (November, 2003) and is described (Pacold, Michael E.; Suire, Sabine; Perisic, Olga; Lara-Gonzalez, Samuel; Davis, Colin T.; Walker, Edward H.; Hawkins, Phillip T.; Stephens, Len; Eccleston, John F.; Williams, Roger L. Crystal structure and functional analysis of Ras binding to its effector phosphoinositide 3-kinase gamma. Cell (2000), 103(6), 931-943).
BV949: PCR products for the inter SH2 domain (iSH2) of the p85 PI3Kα, PI13Kβ and PI3Kδ subunit and for the full-length p110β subunit were generated and fused by overlapping PCR. […] The p11013 fragment was obtained by PCR using as template a p110β clone (from unknown source that was sequence verified) using primers gwG130-p04 (5′-[…]-[…]-3′) (SEQ ID NO: 9) which contains linker sequences and the 5′ end of p110β and gwG130-p06 (5′-[…]-[…]-3′) (SEQ ID NO: 10) which contains sequences of the 3′ end of p110-β fused to a Histidine tag. […] This final product was recombined in a Gateway (Invitrogen) […] into the donor vector pDONR201 (Invitrogen) to generate the ORF253 entry clone. This clone was verified by sequencing and used in a Gateway LR reaction (Invitrogen) to transfer the insert into the Gateway adapted pBlueBac4.5 (Invitrogen) vector for generation of the baculovirus expression vector LR280.
as §2
as §3, with “accordingly.” for “accordingly. An equal volume of Dialysis Buffer (20 mM Tris-Cl, pH 7.5, 500 mM NaCl, 50% glycerol, 5 mM NaF, 5 mM DTT) was added to the pool and than dialyzed against Dialysis Buffer two changes (one change overnight). Protein was stored at −20° C.”

[8] = In vitro metabolic clearance, human liver microsomes (CYP MetCL-Hu); assay type: in vitro ADME; details: human liver microsomes 0.5 mg/mL, test article 1.0 μM, NADPH, 37° C.; read-out: CYP MetCL-Hu/CL(int)
Experimental: (§5) Final test article and protein concentrations, as well as incubation duration, are shown below (Table 1). Low test article concentrations were selected to comply with the assumption that reaction kinetics are evaluated at a concentration less than (or approximately equal to) Km. DMSO is known to have an inhibitory effect on CYP activity. Therefore, the concentration of DMSO in the incubation media has been restricted to 0.01% (v/v) so that interference to the metabolic process is minimized.
(§6) A typical experiment is performed in 96-well format with shaking incubation at 37° C. […] A 30 minutes negative control incubation (minus cofactor) is also performed to assess CYP-unrelated stability issues (eg, chemical instability, CYP-independent metabolism).
In general, TA's in 10 mM DMSO are diluted 1:1000 into 0.6% ACN (v/v) in DiH20 to 10 μM. […] For evaluation of UGT-mediated metabolism, the suspension may be first pretreated by 5 min incubation on ice with alamethicin (25 μg/mg of microsomal protein). TA (35 μL) is added to 140 μL of the microsomal suspensions for 175 μL enzymesubstrate mixture. […] The 30 min negative control incubation is processed by combining 25 μL of enzyme.substrate mixture with an equal volume of 50 mM KPi containing 4 mM MgCl2. Following a 30 minute incubation at 37° C., the mix is quenched by adding 50 μL of ACN containing the MS internal standard (2 μM alprenolol). The T=0 min time point is processed by combining 25 μL of enzyme.substrate mixture directly with 50 μL of ACN containing the MS internal standard (2 μM alprenolol). 25 μL of the cofactor solution is added (2 mM NADPH in 50 mM KPi plus 4 mM MgCl2; optionally including 2 mM UDPGA for CYP+UGT assays) to simulate the complete quenched reaction mixture.
(§7) The bulk reactions for the remaining time points are initiated by addition of 125 μL of cofactor solution (2 mM NADPH in 50 mM KPi plus 4 mM MgCl2) to the remaining 125 μL of enzyme.substrate mixture. […] All the samples are centrifuged at ˜3400×g at 4° C. for 10 min and the supernatants are analyzed by LC-MS/MS for quantitation of remaining TA. […]

[9] = In vitro metabolic clearance, rat liver microsomes (CYP MetCL-Ra); assay type: in vitro ADME; details: rat liver microsomes 0.5 mg/mL, test article 1.0 μM, NADPH, 37° C.; read-out: CYP MetCL-Ra/CL(int)
Experimental: as §5, §6
In general, TA's in 10 mM DMSO are diluted 1:1000 into 0.6% ACN (v/v) in DiH20 to 10 μM. […] For evaluation of UGT-mediated metabolism, the suspension may be first pretreated by 5 min incubation on ice with alamethicin (25 μg/mg of microsomal protein). […]
as §7

Structure (SMILES) | pIC50 [1] | pIC50 [2] | pIC50 [3] | pIC50 [4] | pIC50 [5] | pIC50 [6] | pIC50 [7] | microsomal CLint at 1 μM [8] [µL/min/mg] | microsomal CLint at 1 μM [9] [µL/min/mg]
Cc1nc(NC(=O)N2CCC[C@H]2C(N)=O)sc1-c1ccnc(C2(C)CC2)c1 [Example 5, (S)-Pyrrolidine-1,2-dicarboxylic acid 2-amide 1-({4-methyl-5-[2-(1-methylcyclopropyl)-pyridin-4-yl]-thiazol-2-yl}-amide)] | 5.69 | 8.09 | 8.17 | 6.19 | 7.36 | 8.11 | 5.41 |  | 
[2H]C([2H])([2H])C(c1nccc(-c2sc(NC(=O)N3CCC[C@H]3C(N)=O)nc2C)n1)(C([2H])([2H])[2H])C([2H])([2H])[2H] [Example 61, (S)-Pyrrolidine-1,2-dicarboxylic acid 2-amide 1-{[5-(2-d9-tert-butyl-pyrimidin-4-yl)-4-methyl-thiazol-2-yl]-amide}] |  |  |  |  |  |  |  | 19 | 22
